Results: ChEMBL document CHEMBL5620422, “Design, synthesis, and biological evaluation of a series of new anthraquinone derivatives as anti-ZIKV agents” (Eur J Med Chem, 2023)
The source made the active and inactive calls. No cut-off for these calls is given here.

Tests used:
Zika virus [1] = experiment: Antiviral activity against ZIKV ZG-01 infected in A549 cells preincubated for 1 hr followed by replacement with fresh media containing compound for 48 hrs by crystal violet staining based plaque assay; format: functional, organism-based; details: time 49.0 hrs
[2] = Cytotoxicity against human A549 cells assessed as reduction in cell viability incubated for 48 hrs by MTT assay; format: toxicity, cell-based
[3] = Cytotoxicity against african green monkey Vero cells assessed as reduction in cell viability incubated for 48 hrs by MTT assay; format: toxicity, cell-based; details: chlorocebus sabaeus
[4] = Cytotoxicity against human SNB-19 cells assessed as reduction in cell viability incubated for 48 hrs by MTT assay; format: toxicity, cell-based
Zika virus [5] = experiment: Antiviral activity against ZIKV ZG-01 infected in JEG-3 cells preincubated for 1 hr followed by replacement with fresh media containing compound for 48 hrs by crystal violet staining based plaque assay; format: functional
Zika virus [6] = experiment: Antiviral activity against ZIKV ZG-01 infected in A549 cells assessed as reduction in viral replication at 20 uM preincubated for 1 hr followed by replacement with fresh media containing compound for 48 hrs by RT-PCR analysis; format: functional; design: scale not given: the % may be the effect or the level left; details: time 49 hrs
Zika virus [7] = experiment: Antiviral activity against ZIKV ZG-01 infected in SNB-19 cells assessed as reduction in viral replication at 20 uM preincubated for 1 hr followed by replacement with fresh media containing compound for 48 hrs by RT-PCR analysis; format: functional; design: scale not given: the % may be the effect or the level left; details: time 49 hrs
Zika virus [8] = experiment: Antiviral activity against ZIKV ZG-01 infected in SNB-19 cells assessed as reduction in number of viral positive cells at 5 uM by immunofluorescence assay; format: functional, organism-based
Zika virus [9] = experiment: Antiviral activity against ZIKV ZG-01 infected in JEG-3 cells assessed as reduction in number of viral positive cells at 5 uM by immunofluorescence assay; format: functional, organism-based
Zika virus [10] = experiment: Antiviral activity against ZIKV ZG-01 infected in SNB-19 cells assessed as reduction in viral envelope protein level at 1 to 20 uM after 48 hrs by Western blot assay; format: functional, organism-based; details: dose 1-20 µM
Zika virus [11] = experiment: Antiviral activity against ZIKV ZG-01 infected in JEG-3 cells assessed as reduction in viral envelope protein level at 1 to 20 uM after 48 hrs by Western blot assay; format: functional, organism-based; details: dose 1-20 µM
Zika virus [12] = experiment: Antiviral activity against ZIKV ZG-01 infected in JEG-3 cells assessed as reduction in viral envelope protein level at 10 uM after 18 to 48 hrs by Western blot assay; format: functional, organism-based; details: time 18-48 hrs
[13] = Toxicity in Ifnar1 knockout C57BL/6 mouse assessed as body weight loss at 60 mg/kg administered for 7 days; format: organism-based; details: in vivo, 168 h, time 7 day
[14] = Toxicity in Ifnar1 knockout C57BL/6 mouse assessed as movement disorders at 60 mg/kg administered for 7 days; format: organism-based; details: in vivo, 168 h, time 7 day
Zika virus [15] = experiment: Antiviral activity against ZIKV ZG-01 infected in Ifnar1 knockout C57BL/6 mouse assessed as reduction in number of animal paralysis at 20 mg/kg, iv administered daily for 7 days; format: functional, organism-based; details: time 7.0 day
Zika virus [16] = experiment: Antiviral activity against ZIKV ZG-01 infected in Ifnar1 knockout C57BL/6 mouse assessed as reduction in duration of animal paralysis at 20 mg/kg, iv administered daily for 7 days; format: functional, organism-based; details: time 7.0 day
Zika virus [17] = experiment: Antiviral activity against ZIKV ZG-01 infected in Ifnar1 knockout C57BL/6 mouse assessed as reduction in mortality rate at 20 mg/kg, iv administered daily for 7 days; format: functional, organism-based; details: time 7.0 day
Zika virus [18] = experiment: Antiviral activity against ZIKV ZG-01 infected in Ifnar1 knockout C57BL/6 mouse assessed as reduction in neuronal necrosis by measuring pyknosis at 20 mg/kg, iv administered daily for 7 days and measured upto 12 dpi by H and E staining based analysis; format: functional, organism-based; details: time <= 12.0 day
Zika virus [19] = experiment: Antiviral activity against ZIKV ZG-01 infected in Ifnar1 knockout C57BL/6 mouse assessed as reduction in neuronal necrosis by measuring karyolysis at 20 mg/kg, iv administered daily for 7 days and measured upto 12 dpi by H and E staining based analysis; format: functional, organism-based; details: time <= 12.0 day
Zika virus [20] = experiment: Antiviral activity against ZIKV ZG-01 infected in Ifnar1 knockout C57BL/6 mouse assessed as reduction in neuronal necrosis by measuring necrotic debris at 20 mg/kg, iv administered daily for 7 days and measured upto 12 dpi by H and E staining based analysis; format: functional, organism-based; details: time <= 12.0 day
Zika virus [21] = experiment: Antiviral activity against ZIKV ZG-01 infected in Ifnar1 knockout C57BL/6 mouse assessed as reduction in microglia activation by measuring Iba-1 expression at 20 mg/kg, iv administered daily for 7 days by immunohistochemistry analysis; format: functional, organism-based; details: time 7.0 day
Zika virus [22] = experiment: Antiviral activity against ZIKV ZG-01 infected in Ifnar1 knockout C57BL/6 mouse assessed as reduction in astrocytes activation by measuring GFAP expression at 20 mg/kg, iv administered daily for 7 days by immunohistochemistry analysis; format: functional, organism-based; details: time 7.0 day
Zika virus [23] = experiment: Antiviral activity against ZIKV ZG-01 infected in human SNB-19 cells assessed as reduction in IL-1beta expression at 1 to 5 uM by RT-PCR analysis; format: functional, organism-based; details: dose 1-5 µM
Zika virus [24] = experiment: Antiviral activity against ZIKV ZG-01 infected in human SNB-19 cells assessed as reduction in IL-6 expression at 1 to 5 uM by RT-PCR analysis; format: functional, organism-based; details: dose 1-5 µM
Zika virus [25] = experiment: Antiviral activity against ZIKV ZG-01 infected in human SNB-19 cells assessed as reduction in IFNgamma expression at 1 to 5 uM by RT-PCR analysis; format: functional, organism-based; details: dose 1-5 µM
Zika virus [26] = experiment: Antiviral activity against ZIKV ZG-01 infected in human JEG-3 cells assessed as reduction in IL-6 expression at 1 to 5 uM by RT-PCR analysis; format: functional, organism-based; details: dose 1-5 µM
Zika virus [27] = experiment: Antiviral activity against ZIKV ZG-01 infected in human SNB-19 cells assessed as reduction in TNFalpha release at 1 to 5 uM by ELISA; format: functional, organism-based; details: dose 1-5 µM
SNB-19 [28] = experiment: Antiinflammatory activity in human SNB-19 cells assessed as reduction in IL-1beta expression by RT-PCR analysis; format: functional, cell-based
SNB-19 [29] = experiment: Antiinflammatory activity in human SNB-19 cells assessed as reduction in IL-6 expression by RT-PCR analysis; format: functional, cell-based
SNB-19 [30] = experiment: Antiinflammatory activity in human SNB-19 cells assessed as reduction in TNFalpha expression by RT-PCR analysis; format: functional, cell-based
JEG-3 [31] = experiment: Antiinflammatory activity in human JEG-3 cells assessed as reduction in IL-1beta expression by RT-PCR analysis; format: functional, cell-based
JEG-3 [32] = experiment: Antiinflammatory activity in human JEG-3 cells assessed as reduction in IFNgamma expression by RT-PCR analysis; format: functional, cell-based
Zika virus [33] = experiment: Antiviral activity against ZIKV ZG-01 infected in human JEG-3 cells assessed as reduction in cell pyroptosis; format: functional, organism-based
Zika virus [34] = experiment: Antiviral activity against ZIKV ZG-01 infected in human SNB-19 cells assessed as reduction in GSDMD cleavage by Western blot analysis; format: functional, organism-based; details: dose 1-20 µM
Zika virus [35] = experiment: Antiviral activity against ZIKV ZG-01 infected in human SNB-19 cells assessed as reduction in GSDME cleavage by Western blot analysis; format: functional, organism-based; details: dose 1-20 µM
HEK-293T = experiment: Effect on gaussia luciferase expression in HEK293T cells at 1 to 10 uM; format: functional, cell-based; details: Homo sapiens, dose 1-10 µM

C[C@]1(O)CC2=C(C[C@@]1(C)O)C(=O)c1c(O)cc(N3CCC(c4ccccc4)CC3)c(O)c1C2=O
Activity (Zika virus [1]): Dose-Dependent Effect
CC50 at 48 h [2]: > 50 µM
CC50 at 48 h [3]: 65.4 µM
CC50 at 48 h [4]: 66.1 µM
EC90 (Zika virus [5]; ZG-01, JEG-3, time 49 hrs): 6.4 µM
Activity (Zika virus [5]; time 49.0 hrs): Dose-Dependent Effect
Activity (Zika virus [6]): 100%
Activity (Zika virus [7]): 100%
Activity (Zika virus [8]): Active
Activity (Zika virus [9]): Active
Activity (Zika virus [10]): Active
Activity (Zika virus [11]): Active
Activity (Zika virus [12]): Active
Activity [13]: Non-Toxic
Activity [14]: Non-Toxic
Activity (Zika virus [15]): Active
Activity (Zika virus [16]): Active
Activity (Zika virus [17]): Active
Activity (Zika virus [18]): Active
Activity (Zika virus [19]): Active
Activity (Zika virus [20]): Active
Activity (Zika virus [21]): Active
Activity (Zika virus [22]): Active
Activity (Zika virus [23]): Active
Activity (Zika virus [24]): Active
Activity (Zika virus [25]): Active
Activity (Zika virus [26]): Active
Activity (Zika virus [27]): Active
Activity (SNB-19 [28]): inactive
Activity (SNB-19 [29]): inactive
Activity (SNB-19 [30]): inactive
Activity (JEG-3 [31]): inactive
Activity (JEG-3 [32]): inactive
Activity (Zika virus [33]): Active
Activity (Zika virus [34]): Dose-Dependent Effect
Activity (Zika virus [35]): Dose-Dependent Effect
Activity (HEK-293T): inactive
